Assay results as given in PMC6792352, “Limited Chemical Structural Diversity Found to Modulate Thyroid Hormone Receptor in the Tox21 Chemical Library” (Environmental Health Perspectives, 2019).
Where a name gives a salt, the structure may show the parent alone.

Assay: in vitro
Conditions: rat, gh3-tre-luc cells, AC50 (uM) modified / 1000

`CN1c2c(nc(N)[nH]c2=O)NCC1CNc1ccc(C(=O)N[C@@H](CCC(=O)O)C(=O)O)cc1` (some centres unmarked) [Disodium 5-methyltetrahydrofolate] and `O=C(O)CNC(=O)c1ccc([N+](=O)[O-])cc1` [4-Nitrohippuric acid] cannot be ordered by CC50 at 24 h: > 50 µM for the first, > 90 µM for the second.

`CCCCNS(=O)(=O)c1ccc(C)cc1` [N-Butyl-p-toluenesulfonamide] and `CCOc1ccc(NC(C)=O)cc1` [Phenacetin] cannot be ordered by CC50 at 24 h: > 90 µM for the first, > 50 µM for the second.

`CCCCCCCCC1CCC(=O)O1` (centres unmarked) [gamma-Dodecalactone] and `CC/C=C\CCOC(=O)CCCCC` [(3Z)-Hex-3-en-1-yl hexanoate] cannot be ordered by CC50 at 24 h: > 90 µM for the first, > 90 µM for the second.

`C=CCC1([C@H](C)CCC)C(=O)NC(=O)NC1=O` [R-(+)-Secobarbital] and `CCc1cccc(CC)c1N` [2,6-Diethylaniline] cannot be ordered by CC50 at 24 h: > 90 µM for the first, > 90 µM for the second.

`CC(=O)OC[C@H]1O[C@@](COC(C)=O)(O[C@H]2O[C@H](COC(C)=O)[C@@H](OC(C)=O)[C@H](OC(C)=O)[C@H]2OC(C)=O)[C@@H](OC(C)=O)[C@@H]1OC(C)=O` [Sucrose octaacetate] and `CC[C@H]1OC(=O)[C@H](C)[C@@H](O[C@H]2C[C@@](C)(OC)[C@@H](O)[C@H](C)O2)[C@H](C)[C@@H](O[C@@H]2O[C@H](C)C[C@H](N(C)C)[C@H]2O)[C@](C)(OC)C[C@@H](C)C(=O)[C@H](C)[C@@H](O)[C@]1(C)O` [Clarithromycin] cannot be ordered by CC50 at 24 h: > 70 µM for the first, > 90 µM for the second.

`O=C(Nc1cccc(C2=NCCN2)c1)Nc1cccc(C2=NCCN2)c1` [Imidocarb dipropionate] and `O=C(O)c1cc(-c2ccccc2)nc2ccccc12` [Cinchophen] cannot be ordered by CC50 at 24 h: > 50 µM for the first, > 50 µM for the second.

`CCC(C)OC(=O)c1ccc(O)cc1` (centres unmarked) [sec-Butylparaben] and `CCC(C)(C)c1ccc(O)cc1` [4-(2-Methylbutan-2-yl)phenol] cannot be ordered by CC50 at 24 h: > 90 µM for the first, > 90 µM for the second.

Compared with `N#Cc1cc(Br)c(O)c(Br)c1` [Bromoxynil], `Cc1ccc2c(Br)cc(Br)c(O)c2n1` [Broquinaldol] is lower in CC50 at 24 h: > 90 µM for the first, 23 µM for the second.

`Cn1cc[n+](CCO)c1` [1-(2-Hydroxyethyl)-3-methylimidazolium chloride] and `Cc1cn([C@H]2C=C[C@@H](CO)O2)c(=O)[nH]c1=O` [Stavudine] cannot be ordered by CC50 at 24 h: > 90 µM for the first, > 90 µM for the second.

`CC(C)(O/N=C(\C(=O)N[C@@H]1C(=O)N2C(C(=O)[O-])=C(C[n+]3ccccc3)CS[C@H]12)c1csc(N)n1)C(=O)O` [Ceftazidime pentahydrate] and `CO/N=C(\C(=O)N[C@@H]1C(=O)N2C(C(=O)[O-])=C(C[n+]3cccc4c3CCCC4)CS[C@H]12)c1csc(N)n1` [Cefquinome sulfate] cannot be ordered by CC50 at 24 h: > 20 µM for the first, > 50 µM for the second.

`CC(C)CCCCCCc1ccc(OCCOCCO)cc1` [Igepal CO-890] and `Cn1c(NCCN(CCO)CCCc2ccc([N+](=O)[O-])cc2)cc(=O)n(C)c1=O` [Nifekalant hydrochloride] cannot be ordered by CC50 at 24 h: > 100 µM for the first, > 50 µM for the second.

`OCCN1CCN(CC/C=C2/c3ccccc3Sc3ccc(C(F)(F)F)cc32)CC1` [cis-Flupentixol] and `Cc1cccc(C)c1NC(=O)CN1CCN(CCCC(c2ccc(F)cc2)c2ccc(F)cc2)CC1` [Lidoflazine] are within 1.5-fold of each other in CC50 at 24 h: 12.1 µM for the first, 11.6 µM for the second.

`C#C[C@]1(O)C=C[C@H]2[C@@H]3CCC4=CC(=O)CC[C@@H]4[C@H]3CC[C@@]21CC` [Gestodene] and `CC(C)(C)NC(=O)[C@H]1CC[C@H]2[C@@H]3CC=C4C=C(C(=O)O)CC[C@]4(C)[C@H]3CC[C@]12C` [Epristeride] cannot be ordered by CC50 at 24 h: > 50 µM for the first, > 50 µM for the second.

`COC(=O)C(C)N(C(=O)Cc1ccccc1)c1c(C)cccc1C` (centres unmarked) [Benalaxyl] and `CCOC(=O)CCc1ccccc1` [Ethyl hydrocinnamate] cannot be ordered by CC50 at 24 h: > 90 µM for the first, > 90 µM for the second.

`CN(C)C(=O)Oc1cccc([N+](C)(C)C)c1` [Neostigmine bromide] and `CC(C)Oc1cccc(NC(=O)c2ccccc2C(F)(F)F)c1` [Flutolanil] cannot be ordered by CC50 at 24 h: > 50 µM for the first, > 90 µM for the second.

`CC(C)NCC(O)c1ccccc1Cl` (centres unmarked) [Clorprenaline hydrochloride] and `CCN(CC)CCNC(C(=O)OCCC(C)C)c1ccccc1` (centres unmarked) [Camylofin] cannot be ordered by CC50 at 24 h: > 50 µM for the first, > 50 µM for the second.

`C=CC1=C(C)c2cc3[nH]c(cc4nc(cc5[nH]c(cc1n2)c(C)c5CCC(=O)O)C(CCC(=O)O)=C4C)c(C)c3C=C` [Protoporphyrin disodium] and `COc1cc(C(=O)NCCCCCC(=O)O)cc(OC)c1OC` [Capobenic acid] cannot be ordered by CC50 at 24 h: > 50 µM for the first, > 50 µM for the second.

`C[C]1([Mn](=[C]=O)(=[C]=O)=[C]=O)C=CC=C1` [(Methylcyclopentadienyl)tricarbonylmanganese] and `CC1=NN(c2cccc(S(=O)(=O)O)c2)C(=O)C1` [3-(3-Methyl-5-oxo-4,5-dihydro-1H-pyrazol-1-yl)benzenesulfonic acid] cannot be ordered by CC50 at 24 h: > 90 µM for the first, > 90 µM for the second.

Going from `COc1ccc(O)cc1` [4-Methoxyphenol] to `Cc1cc(O)ccc1O` [Methylhydroquinone], the CC50 at 24 h falls from > 90 µM to 14.8 µM.

`C[C@@H]1CN(c2c(F)c(N)c3c(=O)c(C(=O)O)cn(C4CC4)c3c2F)C[C@H](C)N1` [Sparfloxacin] and `CC1CCc2c(N3CCC(O)CC3)c(F)cc3c(=O)c(C(=O)O)cn1c23` (centres unmarked) [Nadifloxacin] cannot be ordered by CC50 at 24 h: > 50 µM for the first, > 50 µM for the second.

`Cc1nnc2n1-c1ccc(Cl)cc1C(c1ccccc1Cl)=NC2` [Triazolam] and `CCn1c2ccccc2c2cc([N+](=O)[O-])ccc21` [9-Ethyl-3-nitro-9H-carbazole] cannot be ordered by CC50 at 24 h: > 50 µM for the first, > 90 µM for the second.

`CC(=O)C(Cl)C(=O)N(C)C` (centres unmarked) [2-Chloro-N,N-dimethyl-3-oxobutanamide] and `CC(C)=O` [Acetone] cannot be ordered by CC50 at 24 h: > 90 µM for the first, > 90 µM for the second.

Compared with `COc1ccccc1C=CC=O` [2-Methoxycinnamaldehyde], `COc1ccc(Cl)cc1C` [4-Chloro-2-methylanisole] is higher in CC50 at 24 h: 77.5 µM for the first, > 100 µM for the second.

Going from `C=C1/C(=C\C=C2/CCC[C@]3(C)[C@@H]([C@H](C)CCCC(C)C)CC[C@@H]23)C[C@@H](O)C[C@@H]1O` [Alfacalcidol] to `CC1(C)C(O)C(C)(C)C1O` (centres unmarked) [2,2,4,4-Tetramethylcyclobutane-1,3-diol], the CC50 at 24 h rises from 14.8 µM to > 90 µM.

`COC(=O)c1cc(Cl)ccc1[N+](=O)[O-]` [Methyl 5-chloro-2-nitrobenzoate] and `CC1=NS(=O)(=O)c2cc(Cl)ccc2N1` [Diazoxide] cannot be ordered by CC50 at 24 h: > 90 µM for the first, > 50 µM for the second.

`CO[Si](CCCNc1ccccc1)(OC)OC` [N-[3-(Trimethoxysilyl)propyl]aniline] and `O=C(CBr)OCc1ccccc1` [Benzyl bromoacetate] cannot be ordered by CC50 at 24 h: > 90 µM for the first, > 90 µM for the second.

`CCCCC(CC)COC(=O)c1ccccc1O` (centres unmarked) [2-Ethylhexyl salicylate] and `CCn1ccnc1CC1COc2ccccc2O1` (centres unmarked) [Imiloxan] cannot be ordered by CC50 at 24 h: > 50 µM for the first, > 50 µM for the second.

`CN1C(=O)N(C)C(O)C1O` (centres unmarked) [4,5-Dihydroxy-1,3-dimethylimidazolidin-2-one] and `CN1CCC[C@@H]1c1cccnc1` [D-Nicotine] cannot be ordered by CC50 at 24 h: > 90 µM for the first, > 50 µM for the second.

`CC(=O)c1cnccn1` [Acetylpyrazine] and `Cc1ccc2cccnc2c1` [7-Methylquinoline] cannot be ordered by CC50 at 24 h: > 100 µM for the first, > 90 µM for the second.

First: CCN1CCC2(CC1)COc1cc3c(cc12)N(C(=O)c1ccc(-c2ccc(-c4nnc(C)o4)cc2C)cc1)CC3 [SB236057A]
Second: O=C(O)c1cccc(C[C@@H]2COc3ccc(OCc4nc5cc(F)ccc5s4)cc3[C@@H]2O)c1 [CP-085958]
The CC50 at 24 h of the first is lower: 3 µM for the first, > 90 µM for the second.

`c1ccc2c(c1)oc1ccccc12` [Dibenzofuran] and `c1ccc(OCCOc2ccccc2)cc1` [1,2-Diphenoxyethane] cannot be ordered by CC50 at 24 h: > 90 µM for the first, > 90 µM for the second.

`c1ccc2cc(Nc3ccc(Nc4ccc5ccccc5c4)cc3)ccc2c1` [N,N'-Di-2-naphthyl-p-phenylenediamine] and `O=C(O)Cc1nn(Cc2ccc(Br)cc2F)c(=O)c2ccccc12` [Ponalrestat] cannot be ordered by CC50 at 24 h: > 90 µM for the first, > 50 µM for the second.

`COc1cc2c(cc1OC)[C@@H](Cc1cc(OC)c(OC)c(OC)c1)[N+](C)(CCCOC(=O)CC/C=C/CCC(=O)OCCC[N+]1(C)CCc3cc(OC)c(OC)cc3[C@H]1Cc1cc(OC)c(OC)c(OC)c1)CC2` (some centres unmarked) [Mivacurium chloride] and `CCCCCCCCCCCCSCCOCCOCCOCCOCCOCCOCCOCCOCCOCCO` [Laureth 10s] cannot be ordered by CC50 at 24 h: > 50 µM for the first, > 50 µM for the second.

`Cc1cccc(C)c1NC(=O)CN1CCCCCC1` [Pincainide] and `O=C(O)c1ccc(C(=O)O)c(C(=O)O)c1` [1,2,4-Benzenetricarboxylic acid] cannot be ordered by CC50 at 24 h: > 50 µM for the first, > 90 µM for the second.

In the case of `Clc1cc(Cl)c(Cl)cc1Cl` [1,2,4,5-Tetrachlorobenzene], the CC50 at 24 h was > 90 µM.

Same assay, conditions: rat, gh3-tre-luc cells, AC50 (uM) modified / 1000, Tox21_110001=Tox21_112833; viability, 1 nM T3 present, 24 h

For `CC(=O)OC1(c2ccccc2)CCN(CCc2ccccc2)CC1` [1-(2-Phenylethyl)-4-phenyl-4-acetoxypiperidine], the CC50 at 24 h was 84.5 µM.

Same assay, conditions: rat, gh3-tre-luc cells, AC50 (uM) modified / 1000, Tox21_110001=Tox21_200191; viability, 1 nM T3 present, 24 h

Compound `CN(C)c1ccc(N)cc1` [N,N-Dimethyl-p-phenylenediamine] has a CC50 at 24 h of 59.3 µM.

Same assay, conditions: rat, gh3-tre-luc cells, AC50 (uM) modified / 1000, Tox21_110001=Tox21_200578; viability, 1 nM T3 present, 24 h

For `CCN` [Ethylammonium nitrate], the CC50 at 24 h was > 90 µM.

Same assay, conditions: rat, gh3-tre-luc cells, AC50 (uM) modified / 1000, Tox21_110001=Tox21_201546; viability, 1 nM T3 present, 24 h

With `Cc1ccc(OP(=O)(Oc2ccc(C)cc2)Oc2ccc(C)cc2)cc1` [Tricresyl phosphate] the CC50 at 24 h was > 90 µM.

Same assay, conditions: rat, gh3-tre-luc cells, AC50 (uM) modified / 1000, Tox21_110001=Tox21_300741; viability, 1 nM T3 present, 24 h

With `N#Cc1ccncc1` [4-Pyridinecarbonitrile] the CC50 at 24 h was > 100 µM.

Same assay, conditions: rat, gh3-tre-luc cells, AC50 (uM) modified / 1000, Tox21_110001=Tox21_300875; viability, 1 nM T3 present, 24 h

In the case of `CCC1CCC(=O)O1` (centres unmarked) [gamma-Caprolactone], the CC50 at 24 h was > 100 µM.

Same assay, conditions: rat, gh3-tre-luc cells, AC50 (uM) modified / 1000, Tox21_110001=Tox21_301356; viability, 1 nM T3 present, 24 h

For `CCSCc1ccccc1OC(=O)NC` [Ethiofencarb], the CC50 at 24 h was > 90 µM.

Same assay, conditions: rat, gh3-tre-luc cells, AC50 (uM) modified / 1000, Tox21_110001=Tox21_400029; viability, 1 nM T3 present, 24 h

With `ClC1=C(Cl)[C@]2(Cl)[C@@H]3[C@@H]4C[C@@H]([C@H]5O[C@@H]45)[C@@H]3[C@@]1(Cl)C2(Cl)Cl` [Dieldrin] the CC50 at 24 h was 75.8 µM.
